According to ChEMBL document CHEMBL3046133, “Susceptibility of field populations of Spodoptera litura (Fabricius) (Lepidoptera: Noctuidae) in China to chlorantraniliprole and the activities of detoxification enzymes” (2012):

How the values were obtained:
Assay type in all cases: functional
Spodoptera litura [1] = test: Resistance factor, ratio of LC50 for third to fifth-instar larval stage of Spodoptera litura field strain HH09 to LC50 for larval stage of Spodoptera litura laboratory strain XW-Sus
Spodoptera litura [2] = test: Resistance factor, ratio of LC50 for third to fifth-instar larval stage of Spodoptera litura field strain NJ10 to LC50 for larval stage of Spodoptera litura laboratory strain XW-Sus
Spodoptera litura [3] = test: Resistance factor, ratio of LC50 for third to fifth-instar larval stage of Spodoptera litura field strain HF10 to LC50 for larval stage of Spodoptera litura laboratory strain XW-Sus
Spodoptera litura [4] = test: Insecticidal activity against second to fifth-instar larval stage of Spodoptera litura field strain HZ10 assessed as mortality after 72 hr by diet incorporation bioassay
Spodoptera litura [5] = test: Resistance factor, ratio of LC50 for third to fifth-instar larval stage of Spodoptera litura field strain NN10 to LC50 for larval stage of Spodoptera litura laboratory strain XW-Sus
Spodoptera litura [6] = test: Insecticidal activity against third to fifth-instar larval stage of Spodoptera litura field strain HX09 assessed as mortality after 72 hr by diet incorporation bioassay
Spodoptera litura [7] = test: Insecticidal activity against third to fifth-instar larval stage of Spodoptera litura field strain HF08 assessed as mortality after 72 hr by diet incorporation bioassay
Spodoptera litura [8] = test: Insecticidal activity against third to fifth-instar larval stage of Spodoptera litura field strain SH10 assessed as mortality after 72 hr by diet incorporation bioassay
Spodoptera litura [9] = test: Resistance factor, ratio of LC50 for second to fifth-instar larval stage of Spodoptera litura field strain DG10 to LC50 for larval stage of Spodoptera litura laboratory strain XW-Sus
Spodoptera litura [10] = test: Resistance factor, ratio of LC50 for third to fifth-instar larval stage of Spodoptera litura field strain HF08 to LC50 for larval stage of Spodoptera litura laboratory strain XW-Sus
Spodoptera litura [11] = test: Insecticidal activity against second to fifth-instar larval stage of Spodoptera litura field strain ZZ10 assessed as mortality after 72 hr by diet incorporation bioassay
Spodoptera litura [12] = test: Insecticidal activity against third to fifth-instar larval stage of Spodoptera litura field strain NN10 assessed as mortality after 72 hr by diet incorporation bioassay
Spodoptera litura [13] = test: Resistance factor, ratio of LC50 for third to fifth-instar larval stage of Spodoptera litura field strain HX09 to LC50 for larval stage of Spodoptera litura laboratory strain XW-Sus
Spodoptera litura [14] = test: Resistance factor, ratio of LC50 for second to fifth-instar larval stage of Spodoptera litura field strain SZ10 to LC50 for larval stage of Spodoptera litura laboratory strain XW-Sus
Spodoptera litura [15] = test: Insecticidal activity against second to fifth-instar larval stage of Spodoptera litura field strain DG10 assessed as mortality after 72 hr by diet incorporation bioassay
Spodoptera litura [16] = test: Insecticidal activity against larval stage of Spodoptera litura laboratory strain XW-Sus assessed as mortality after 72 hr by diet incorporation bioassay
Spodoptera litura [17] = test: Insecticidal activity against third to fifth-instar larval stage of Spodoptera litura field strain HF10 assessed as mortality after 72 hr by diet incorporation bioassay
Spodoptera litura [18] = test: Insecticidal activity against third to fifth-instar larval stage of Spodoptera litura field strain NJ09 assessed as mortality after 72 hr by diet incorporation bioassay
Spodoptera litura [19] = test: Resistance factor, ratio of LC50 for second to fifth-instar larval stage of Spodoptera litura field strain HZ10 to LC50 for larval stage of Spodoptera litura laboratory strain XW-Sus
Spodoptera litura [20] = test: Resistance factor, ratio of LC50 for second to fifth-instar larval stage of Spodoptera litura field strain ZZ10 to LC50 for larval stage of Spodoptera litura laboratory strain XW-Sus
Spodoptera litura [21] = test: Resistance factor, ratio of LC50 for third to fifth-instar larval stage of Spodoptera litura field strain SH10 to LC50 for larval stage of Spodoptera litura laboratory strain XW-Sus
Spodoptera litura [22] = test: Insecticidal activity against third to fifth-instar larval stage of Spodoptera litura field strain HH09 assessed as mortality after 72 hr by diet incorporation bioassay
Spodoptera litura [23] = test: Insecticidal activity against second to fifth-instar larval stage of Spodoptera litura field strain SZ10 assessed as mortality after 72 hr by diet incorporation bioassay
Spodoptera litura [24] = test: Resistance factor, ratio of LC50 for third to fifth-instar larval stage of Spodoptera litura field strain NJ09 to LC50 for larval stage of Spodoptera litura laboratory strain XW-Sus
Spodoptera litura [25] = test: Insecticidal activity against third to fifth-instar larval stage of Spodoptera litura field strain NJ10 assessed as mortality after 72 hr by diet incorporation bioassay

## CNC(=O)c1cc(Cl)cc(C)c1NC(=O)c1cc(Br)nn1-c1ncccc1Cl [CHLORANTRANILIPROLE]
Spodoptera litura [1]
  RatioLC50: 9.4
Spodoptera litura [2]
  RatioLC50: 9
Spodoptera litura [3]
  RatioLC50: 17.9
Spodoptera litura [4]
  LC50: 80.41 ugAi/L
  LC90: 296.76 ugAi/L
Spodoptera litura [5]
  RatioLC50: 7.8
Spodoptera litura [6]
  LC50: 100.3 ugAi/L
  LC90: 431.76 ugAi/L
Spodoptera litura [7]
  LC50: 71.58 ugAi/L
  LC90: 386.57 ugAi/L
Spodoptera litura [8]
  LC50: 47.17 ugAi/L
  LC90: 133.09 ugAi/L
Spodoptera litura [9]
  RatioLC50: 23.3
Spodoptera litura [10]
  RatioLC50: 16.9
Spodoptera litura [11]
  LC50: 78.89 ugAi/L
  LC90: 269.74 ugAi/L
Spodoptera litura [12]
  LC50: 32.85 ugAi/L
  LC90: 81.75 ugAi/L
Spodoptera litura [13]
  RatioLC50: 23.8
Spodoptera litura [14]
  RatioLC50: 24.4
Spodoptera litura [15]
  LC50: 98.81 ugAi/L
  LC90: 358.16 ugAi/L
Spodoptera litura [16]
  LC50: 4.2 ugAi/L
  LC90: 17.82 ugAi/L
Spodoptera litura [17]
  LC50: 75.51 ugAi/L
  LC90: 262.61 ugAi/L
Spodoptera litura [18]
  LC50: 28.41 ugAi/L
  LC90: 108.24 ugAi/L
Spodoptera litura [19]
  RatioLC50: 19.2
Spodoptera litura [20]
  RatioLC50: 18.9
Spodoptera litura [21]
  RatioLC50: 11.2
Spodoptera litura [22]
  LC50: 39.54 ugAi/L
  LC90: 132.55 ugAi/L
Spodoptera litura [23]
  LC50: 102.48 ugAi/L
  LC90: 354.52 ugAi/L
Spodoptera litura [24]
  RatioLC50: 6.8
Spodoptera litura [25]
  LC50: 37.78 ugAi/L
  LC90: 156.29 ugAi/L
